Source: article PMC12010006, “Subnanomolar MAS-related G protein-coupled receptor-X2/B2 antagonists with efficacy in human mast cells and disease models” (Signal Transduction and Targeted Therapy, 2025)

Molecular target: T1, MRGPRX2 (Homo sapiens, UniProt Q96LB1)
T1 sequence (Q96LB1 1-330): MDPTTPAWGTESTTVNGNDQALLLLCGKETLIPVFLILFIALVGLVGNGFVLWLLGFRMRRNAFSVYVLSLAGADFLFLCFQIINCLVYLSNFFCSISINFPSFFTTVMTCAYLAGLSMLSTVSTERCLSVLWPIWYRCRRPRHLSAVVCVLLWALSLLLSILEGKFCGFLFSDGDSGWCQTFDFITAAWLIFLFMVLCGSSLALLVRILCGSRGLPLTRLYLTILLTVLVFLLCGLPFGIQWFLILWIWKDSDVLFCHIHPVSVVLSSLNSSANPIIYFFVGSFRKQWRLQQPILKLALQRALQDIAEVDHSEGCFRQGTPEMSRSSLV
Test: Ca2+ mobilization assay, LN229 cells overexpressing MRGPRX2
Format: cell-based
Parameters: expressed in transfected cells; host or cells: LN229 human glioblastoma cells; plasmid pLXSN-MRGPRX2 (Addgene #213960)
Details: for Ki: versus CST-14 (EC80 800 nM, EC50 452 nM), Cheng-Prusoff, read-out: Ca2+ assay Ki ± SEM

| SMILES | fold higher potency compared to the 8-monofluorinated derivative (30) | fold increase in potency compared to 10 | fold increase in potency compared to hit compound 1 | MRGPRX2 antagonistic potency in Ca2+ assay, in words (versus CST-14) | Ki | agonistic activity in Ca2+ assays |
| --- | --- | --- | --- | --- | --- | --- |
| CCc1c(C(C)C)[nH]c2nc3cc(F)c(F)cc3n2c1=O [Compound 24, 3-ethyl-7,8-difluoro-2-isopropylbenzo[4,5]imidazo [1,2-a] pyrimidin-4(1H)-one] | about 4 fold | 7 fold | 1870 fold | subnanomolar potencies | 0.142 nM |  |
| CCCc1c(C)[nH]c2nc3ccccc3n2c1=O [Compound 1, 2-methyl-3-propylbenzo[4,5]imidazo[1,2-a]pyrimidin-4(1H)-one] |  |  |  |  | 246 ± 125 nM | did not show any agonistic activity |
